The record followed here is patent publication US11104700B2, “Oligonucleotides” (OXFORD UNIVERSITY INNOVATION LIMITED, priority 2017, dated 2021).

Where two headings read alike, the source gives them in different places. In the oligonucleotide strings, read from the 5' end, every base follows the letter of its sugar. An asterisk marks phosphorothioate; unmarked linkages are phosphodiester. Other units and linkages are bracketed, terminal groups are in braces. A string of capitals states the bases alone. [tz] = triazole internucleoside linkage replacing phosphodiester; l = locked nucleic acid (LNA); [5mC] = 5-methylcytosine; d = 2'-deoxy (DNA)

In data set [1] the test system is RNA target 5′-rGCU GCA GGC GUC G (SEQ ID NO: 24). In kind it is binding. To be noted: for Tm, RNA target: pH 7.
In data set [2] the test system is DNA target 5′-dGCT GCA GGC GTC G (SEQ ID NO: 23). The format is binding. Conditions: for Tm, DNA target: pH 7.
Data set [3] relates to RNA target: 5′-rGCU GCA AGC GUC G (SEQ ID NO: 34). Briefly: UV thermal melting, single triazole linkage (MeC-T step), RNA target. In kind it is binding.
Data set [4] has as its system DNA target: 5′-dGCT GCA AGC GTC G (SEQ ID NO: 33). As to the kind of experiment: UV thermal melting, single triazole linkage (MeC-T step), DNA target. The format is binding.
For data set [5], the system named is RNA Target 3′-rGCUGCGMACGUCG (M = G, C, U). As to the kind of experiment: Mismatch discrimination against RNA targets containing a mismatch nucleotide (UV melting). The format is binding.
Data set [6] has as its system DNA target: 5′-dGCT GGA GAG GTC G (SEQ ID NO: 39). The format is binding. Conditions: for Tm, DNA target: pH 7.
Data set [7] concerns DNA target; 5′-dGCT AGA GAA GTC G (SEQ ID NO: 37). As to the kind of experiment: UV thermal melting, two triazole linkages (MeC-T steps), DNA target. In kind it is binding. Conditions: Table 6; for Tm, DNA target: 10 mM phosphate, 200 mM NaCl, pH 7.0, 3.0 μM each strand; for ΔTm/mod, DNA target: relative to unmodified ON7.
Data set [8] relates to RNA target; 5′-rGCU AGA GAA GUC G (SEQ ID NO: 38). As to the kind of experiment: UV thermal melting, two triazole linkages (MeC-T steps), RNA target. Conditions: for Tm, RNA target / ΔTm/mod, RNA target: Table 6; for Tm, RNA target: 10 mM phosphate, 200 mM NaCl, pH 7.0, 3.0 μM each strand; for ΔTm/mod, RNA target: relative to unmodified ON7. The format is binding.
Data set [9] concerns Phosphodiesterase 1 from Crotalus adamanteus venom.
[10] abbreviates: Table 5, 10 mM phosphate, 200 mM NaCl, pH 7.0, 3.0 μM each strand.
The mark [11] stands for this setting: Table 3, fully matched duplex (M = A).
The mark [12] stands for this setting: change in Tm relative to the fully matched duplex (M = A).

5′-d CGACG^MeCp^MeCTGCAGC [ON33]: the Tm, RNA target in data set [1] was 69.1 °C. The Tm, DNA target in data set [2] stood at 68.7 °C.
5′-d CGACG^MeCp^MeC^LTGCAGC [ON34]: in data set [1], the “ΔTm, RNA target (relative to the unmodified duplex ON33)” value is recorded as “+5.6” and the Tm, RNA target is 74.7 °C. In addition, in data set [2], the “ΔTm, DNA target (relative to the unmodified duplex ON33)” value is reported as “+3.3” and the Tm, DNA target was determined as 72 °C.
With “5′-dCGACG^MeC^LtTTGCAGC (DNA dCdGdAdCdGl[5mC][tz]dTdTdGdCdAdGdC; further chemistry not given here) [ON5]”, in data set [3] (DNA:RNA hybrids or DNA duplexes), the “additional stabilising effect of LNA on the 5′-side of the triazole” value is reported as “no significant additional stabilising effect”. In addition, the “Tm, RNA target” value in [3] (setting [10]) was 55.5 °C. Also, in data set [3] (Table 5, relative to ON1), the “ΔTm, RNA target (change in Tm relative to the unmodified duplex)” value was -7.2 °C. In addition, the “Tm, DNA target” value in data set [4] (setting [10]) stood at 52.7 °C. For the same substance, the “ΔTm, DNA target (change in Tm relative to the unmodified duplex)” value in data set [4] (Table 5, relative to ON1) is -11.5 °C.
As for 5′-dCGACG^MeC^LtT^LTGCAGC [ON6], in [3], the “additional stabilising effect of LNA on the 5′-side of the triazole” value is listed as “no significant additional stabilising effect” and the “ΔTm, RNA target (change in Tm relative to the unmodified duplex)” value was “+0.1”. In addition, in [3] (pH 7), the Tm, RNA target worked out at 62.9 °C. Moreover, the “ΔTm, DNA target (change in Tm relative to the unmodified duplex)” value in data set [4] is reported as -5.8. The Tm, DNA target in data set [4] (pH 7) stood at 58.4 °C.
Take “5′-dCGACG^MeCtTTGCAGC (DNA dCdGdAdCdGd[5mC][tz]dTdTdGdCdAdGdC; further chemistry not given here) [ON3]”: in data set [3] (setting [11]), the “Tm, RNA target M = A” value worked out at 56.6 °C. Further, the “Tm, RNA target” value in data set [3] (setting [10]) was 56.6 °C. The “ΔTm, RNA target (change in Tm relative to the unmodified duplex)” value in data set [3] (Table 5, relative to ON1) is -6.2 °C. Also, the “Tm, DNA target” value in [4] (setting [10]) stood at 55.3 °C. Further, the “ΔTm, DNA target (change in Tm relative to the unmodified duplex)” value in data set [4] (Table 5, relative to ON1) is -8.9 °C. In data set [5] (setting [12]), the “ΔTm, mismatch M = C” value is -16.1 °C; the “ΔTm, mismatch M = G” value was -2.2 °C; the “ΔTm, mismatch M = U” value is -12.9 °C.
Take 5′-dCGACG^MeCtT^LTGCAGC [ON2]: in [3], the Tm, RNA target M = A is 62 °C; the “increase in Tm relative to the duplex with only the triazole linkage” value came out at 5.4; the “ΔTm, RNA target (change in Tm relative to the unmodified duplex)” value is −0.8. Also, the Tm, RNA target in [3] (pH 7) is 62 °C. In data set [4], the “increase in thermal stability compared to the duplex containing only the triazole linkage” value was determined as 2.9 and the “ΔTm, DNA target (change in Tm relative to the unmodified duplex)” value is recorded as −6.0. Further, the Tm, DNA target in data set [4] (pH 7) amounted to 58.2 °C. Further, in data set [5], the “ΔTm, mismatch M = C” value is listed as -15.6; the “ΔTm, mismatch M = G” value is -3.3; the “ΔTm, mismatch M = U” value is -13.4.
5′-dCGACG^MeCt^MeCTGCAGC [ON12]: in [1], the “ΔTm, RNA target (relative to the unmodified duplex ON33)” value was -5.8 and the Tm, RNA target came out at 63.4 °C. In [2], the “ΔTm, DNA target (relative to the unmodified duplex ON33)” value is recorded as -6.4 and the Tm, DNA target was found to be 62 °C.
In the case of 5′-dCGACG^MeCt^MeC^LTGCAGC [ON11], in [1], the “ΔTm, RNA target (relative to the unmodified duplex ON33)” value was -0.5 and the Tm, RNA target came out at 68.6 °C. In addition, in [2], the “ΔTm, DNA target (relative to the unmodified duplex ON33)” value is on record as -5.1 and the Tm, DNA target turned out to be 63.5 °C.
As to 5′-dCGA^MeCp^MeCTCT^MeCp^MeCAGC [ON35], the Tm, DNA target in [6] worked out at 66.6 °C.
Consider “5′-dCGA^MeCp^MeC^LTCT^MeCp^MeC^LAGC [ON36]”, for which, in [6], the “ΔTm/mod, DNA target” value is listed as “+2.8” and the Tm, DNA target was 72.2 °C.
Turning to “5′-dCGA^MeCtTTCT^MeCtTAGC (DNA dCdGdAd[5mC][tz]dTdTdCdTd[5mC][tz]dTdAdGdC; further chemistry not given here) [ON9]”, in data set [7], the “Tm, DNA target” value was determined as 42.3 °C and the “ΔTm/mod, DNA target” value was -7.4 °C/modification. Also, in data set [8], the “Tm, RNA target” value was 47.1 °C and the “ΔTm/mod, RNA target” value was -5.8 °C/modification.
Consider “5′-dCGA^MeCtT^LTCT^MeCtT^LAGC (DNA dCdGdAd[5mC][tz]lTdTdCdTd[5mC][tz]lTdAdGdC; further chemistry not given here) [ON8]”, for which, in [7], the “Tm, DNA target” value was determined as 48.0 °C and the “ΔTm/mod, DNA target” value was -4.5 °C/modification. For the same substance, in data set [8] (ON8 compared with ON9, RNA target), the “increase in Tm per modification relative to two triazole linkages without 3′-LNA” value worked out at 5.0 °C/modification. For the same substance, the “drop in Tm per modification compared to unmodified ON7” value in data set [8] (RNA target) came out at 0.8 °C/modification. Besides, in data set [8], the “Tm, RNA target” value was found to be 57.1 °C and the “ΔTm/mod, RNA target” value is -0.8 °C/modification.
As for 5′-dCGA^MeCt^MeCTCT^MeCt^MeCAGC [ON14], in [6], the “ΔTm/mod, DNA target” value is given as -7.3 and the Tm, DNA target stood at 51.9 °C.
“5′-dCGA^MeCt^MeC^LTCT^MeCt^MeC^LAGC [ON13]”: in [6], the “ΔTm/mod, DNA target” value was -5.1 and the Tm, DNA target stood at 56.4 °C.
With “CGACG^MeCTTGCAGC (DNA CGACGCTTGCAGC; DNA, [5mC] at 6, backbone not given here) [ON1]”, the “time to full digestion by 3′-exonuclease (gel)” value in data set [9] is given as no more than 5 min. In addition, the “Tm, RNA target M = A” value in [3] (setting [11]) came to 62.8 °C. Moreover, the “Tm, RNA target” value in [3] (setting [10]) was 62.8 °C. In addition, the “Tm, DNA target” value in data set [4] (setting [10]) was 64.2 °C. Also, in data set [5] (setting [12]), the “ΔTm, mismatch M = C” value is -16.3 °C; the “ΔTm, mismatch M = G” value is -3.9 °C; the “ΔTm, mismatch M = U” value was -13.7 °C.
Consider CGACG^MeCT^LTGCAGC [ON4], for which, in [3], the Tm, RNA target M = A was found to be 68.9 °C and the “ΔTm, RNA target (change in Tm relative to the unmodified duplex)” value came to 6.1. Also, the Tm, RNA target in data set [3] (pH 7) is 68.9 °C. In addition, in data set [4], the “ΔTm, DNA target (change in Tm relative to the unmodified duplex)” value is on record as 3.3. In addition, the Tm, DNA target in [4] (pH 7) turned out to be 67.5 °C. In addition, in [5], the “ΔTm, mismatch M = C” value is reported as -15.2; the “ΔTm, mismatch M = G” value is reported as -4.8; the “ΔTm, mismatch M = U” value is reported as -13.7.
As for “CGA^MeCTTCT^MeCTAGC (DNA dCdGdAd[5mC]dTdTdCdTd[5mC]dTdAdGdC) [ON7]”, the “Tm, DNA target” value in data set [7] is 57.1 °C. The “Tm, RNA target” value in data set [8] came out at 58.8 °C.
For the substance “CGA^MeCT^LTCT^MeCT^LAGC (DNA dCdGdAd[5mC]lTdTdCdTd[5mC]lTdAdGdC) [ON10]”, in data set [7], the “Tm, DNA target” value was found to be 62.2 °C and the “ΔTm/mod, DNA target” value is “+2.5 °C/modification”. Also, in [8], the “Tm, RNA target” value amounted to 70.0 °C and the “ΔTm/mod, RNA target” value was “+5.6 °C/modification”.
